Data reported in patent US10611750B2, “Tetrahydroquinoline compositions as bet bromodomain inhibitors” (FORMA Therapeutics, Inc., priority 2013, dated 2020).

Tests used:
[1] = biological target: T1, BRD4 Bromodomain 2 (BRD4 BD2) (Homo sapiens, UniProt O60885); assay: AlphaScreen binding assay, BRD4 BD2; details: His-tagged BRD4 BD2 100 nM, biotinylated H4 (1-21) K5/8/12/16 tetra-acetylated peptide 100 nM, compounds listed under IC50 range headings
T1 construct: 333-460 were cloned, expressed, and purified to homogeneity
Experimental: The binding of Example compounds to BRD4 Bromodomain 1 and BRD4 Bromodomain 2 was assessed using 384-well AlphaScreen assay technology. His-epitope tagged BRD4 BD144-168 and BRD4 BD2333-460 were cloned, expressed, and purified to homogeneity. BRD4 BD1 and BRD4 BD2 binding and inhibition was assessed by monitoring the engagement of biotinylated Histone H4 (1-21) K5/8/12/16 tetra-acetylated peptide with the targets using the AlphaScreen technology (PerkinElmer). Specifically, in a 384-well black or white flat bottom plate, BRD4 BD1 (50 nM final) or BRD4 BD2 (100 nM final) was combined with peptide (50 nM final for BD1 or 100 nM final for BD2) in 50 mM HEPES (pH 7.3), 100 mM NaCl, 0.1% (w/v) BSA, and 0.01% (w/v) Triton X-100 either in the presence of DMSO (final 1.25% DMSO) or compound dilution series in DMSO. Alpha streptavidin donor beads and Nickel-chelate acceptor beads were added to a final concentration of 10 μg/ml each. After a minimum of 1 hour equilibration, plates were read on a BMG PHERAstar FS multi-label reader (BMG LabTech). The half maximal inhibitory concentration (IC50) values were calculated using IDBS Activity Base software with a four parameter logistic curve fit by the equation y=A+((B−A)/(1+((C/x)^D))), wherein A denotes the bottom plateau of the curve, B denotes the top plateau of the curve, C denotes the x value at the middle of the curve, D denotes the slope factor, x denotes the original known x values, and y denotes the original known y values. Data was fitted using the Levenburg Marquardt algorithm.

[2] = system: acute myelocytic leukemia (AML) cell line MV4-11; assay: Oncology cell growth assay (3-day proliferation, CellTiter-Glo); format: cell-based; details: Homo sapiens, MV4-11, 72 h, MV4-11 cells, 3000 cells/well, compounds listed under IC50 range headings, read-out: MV411 IC50 (gIC50, inhibition of proliferation)
Procedure, shortened: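 MV4-11 AML cells (RPMI 1640, 10% FBS) plated at 3000 cells/well and exposed 72 h to compound at final 10 to 0.0045 μM (3-fold series). Viability read by CellTiter-Glo luminescence; gIC50 from four-parameter logistic fit between DMSO control and no-cell background.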

[3] = biological target: T2, BRD4 Bromodomain 1 (BRD4 BD1) (Homo sapiens, UniProt O60885); assay: AlphaScreen binding assay, BRD4 BD1; details: His-tagged BRD4 BD1 50 nM, biotinylated H4 (1-21) K5/8/12/16 tetra-acetylated peptide 50 nM, compounds listed under IC50 range headings
T2 construct: 44-168 and BRD4 BD2
Procedure, shortened: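 An AlphaScreen competition format was used with His-BRD4 BD1 or BD2 and biotin-H4 K5/8/12/16-acetyl peptide, each at matched final levels of 50 nM (BD1) or 100 nM (BD2). Incubation in HEPES/NaCl buffer with 0.1% BSA and 0.01% Triton X-100 ran ≥1 h before IC50 determination.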

IC50 [1] [nM] | IC50 [2] [nM] | IC50 [3] [nM] | SMILES
< 50 | < 500 | 100 to 1000 | COC(=O)N1c2ccc(-c3cnn(C4CCNCC4)c3)c(Oc3cccc(F)c3C#N)c2CC[C@@H]1C [I-148, (S)-methyl 5-(2-cyano-3-fluorophenoxy)-2-methyl-6-(1-(piperidin-4-yl)-1H-pyrazol-4-yl)-3,4-dihydroquinoline-1(2H)-carboxylate]
< 50 | < 500 | 100 to 1000 | CC(=O)N1c2ccc(-c3cnn(C4CCNCC4)c3)c(Oc3ccc(Cl)cc3)c2CC[C@@H]1C [I-191, (S)-1-(5-(4-chlorophenoxy)-2-methyl-6-(1-(piperidin-4-yl)-1H-pyrazol-4-yl)-3,4-dihydroquinolin-1(2H)-yl)ethanone]
< 50 | < 500 | 100 to 1000 | CC(=O)N1c2ccc(-c3cnn(C4CCNCC4)c3)c(OC3CCC3)c2CC[C@@H]1C [I-412]
50 to 500 | < 500 | 100 to 1000 | CC(=O)N1c2ccc(-c3cnn(C4CC4)c3)c(Oc3ncccc3C(N)=O)c2CC[C@@H]1C [I-81, (S)-2-(1-acetyl-6-(1-cyclopropyl-1H-pyrazol-4-yl)-2-methyl-1,2,3,4-tetrahydroquinolin-5-yloxy)nicotinamide]
50 to 500 | – | 1000 to 10000 | COC(=O)N1c2ccc(-c3cnn(C4CC4)c3)c(OC(CF)CF)c2CC[C@@H]1C [I-15, (S)-methyl 6-(1-cyclopropyl-1H-pyrazol-4-yl)-5-(1,3-difluoropropan-2-yloxy)-2-methyl-3,4-dihydroquinoline-1(2H)-carboxylate]
≥ 500 | – | ≥ 10000 | CC(=O)N1c2cccc(OCC3CCCC3)c2CC[C@@H]1C [I-607]
50 to 500 | – | 1000 to 10000 | CC(=O)N1c2ccc(-c3cnn(C4CC4)c3)c(OCc3ccccn3)c2CC[C@@H]1C [I-403]
50 to 500 | – | 1000 to 10000 | CC(=O)N1c2ccc(-c3cnn(CCO)c3)c(OCC(=O)N3CCCC3)c2CC[C@@H]1C [I-430]
50 to 500 | – | 1000 to 10000 | CC(=O)N1c2ccc(-c3cnn(CCO)c3)c(Oc3nc(C)cc(C)n3)c2CC[C@@H]1C [I-544]
50 to 500 | – | 1000 to 10000 | CCCOc1c(-c2ccc(S(=O)(=O)CC)cc2)ccc2c1CC[C@H](C)N2C(C)=O [I-484]
50 to 500 | – | 1000 to 10000 | COC(=O)N1c2ccc(-c3cnn(C4CC4)c3)c(OCCN3CCCC3=O)c2CC[C@@H]1C [I-25, (S)-methyl 6-(1-cyclopropyl-1H-pyrazol-4-yl)-2-methyl-5-(2-(2-oxopyrrolidin-1-yl)ethoxy)-3,4-dihydroquinoline-1(2H)-carboxylate]
50 to 500 | – | 1000 to 10000 | CC(=O)N1c2ccc(-c3cnn(C4CC4)c3)c(OC(CF)CF)c2CC[C@@H]1C [I-38, (S)-1-(6-(1-cyclopropyl-1H-pyrazol-4-yl)-5-(1,3-difluoropropan-2-yloxy)-2-methyl-3,4-dihydroquinolin-1(2H)-yl)ethanone]
50 to 500 | – | 1000 to 10000 | COC(=O)N1c2ccc(-c3cnn(C4CC4)c3)c(OC(C)(C)C(N)=O)c2CC[C@@H]1C [I-18, (S)-methyl 5-(1-amino-2-methyl-1-oxopropan-2-yloxy)-6-(1-cyclopropyl-1H-pyrazol-4-yl)-2-methyl-3,4-dihydroquinoline-1(2H)-carboxylate]
50 to 500 | – | 1000 to 10000 | COC(=O)N1c2ccc(-c3cnn(CC(C)(C)O)c3)c(OCC(C)C)c2CC[C@@H]1C [I-456]
50 to 500 | – | 1000 to 10000 | CC(=O)N1c2ccc(-c3cnn(CCS(C)(=O)=O)c3)c(OCC(=O)N3CCCC3)c2CC[C@@H]1C [I-428]
≥ 500 | – | ≥ 10000 | COC(=O)N1c2ccc(-c3cnn(C4CC4)c3)c(OCC(F)(F)F)c2CC[C@@H]1C [I-9, (S)-methyl 6-(1-cyclopropyl-1H-pyrazol-4-yl)-2-methyl-5-(2,2,2-trifluoroethoxy)-3,4-dihydroquinoline-1(2H)-carboxylate]
50 to 500 | – | 1000 to 10000 | COC(=O)N1c2ccc(-c3cnn(C4CC4)c3)c(OCC(C)(C)F)c2CC[C@@H]1C [I-16, (S)-methyl 6-(1-cyclopropyl-1H-pyrazol-4-yl)-5-(2-fluoro-2-methylpropoxy)-2-methyl-3,4-dihydroquinoline-1(2H)-carboxylate]
50 to 500 | – | 1000 to 10000 | COC(=O)N1c2ccc(-c3cnn(C4CCNCC4)c3)c(OC[C@H]3CCC(=O)N3)c2CC[C@@H]1C [I-470]

IC50 [1] [nM] | IC50 [2] [nM] | IC50 [3] [nM] | SMILES
50 to 500 | – | 1000 to 10000 | CCCOc1c(-c2ccc3c(c2)CCN3S(C)(=O)=O)ccc2c1CC[C@H](C)N2C(C)=O [I-500]
50 to 500 | – | 1000 to 10000 | COC(=O)N1c2ccc(-c3cnn(CCS(C)(=O)=O)c3)c(OCC(C)C)c2CC[C@@H]1C [I-455]
50 to 500 | – | 1000 to 10000 | COC(=O)N1c2ccc(-c3cnn(C4CCNCC4)c3)c(OCC(=O)N(C)C)c2CC[C@@H]1C [I-454]
≥ 500 | – | 1000 to 10000 | CCCOc1c(-c2ccc(S(C)(=O)=O)cc2)ccc2c1CC[C@H](C)N2C(C)=O [I-482]
50 to 500 | – | 100 to 1000 | CC(=O)N1c2ccc(-c3cnn(C4COC4)c3)c(Oc3nc4ccccc4o3)c2CC[C@@H]1C [I-79, (S)-1-(5-(benzo[d]oxazol-2-yloxy)-2-methyl-6-(1-(oxetan-3-yl)-1H-pyrazol-4-yl)-3,4-dihydroquinolin-1(2H)-yl)ethanone]
50 to 500 | – | 1000 to 10000 | CC(=O)N1c2ccc(-c3cnn(C4CC4)c3)c(OCc3cccnc3)c2CC[C@@H]1C [I-399]
50 to 500 | – | 1000 to 10000 | CCCOc1c(-c2cccc(S(C)(=O)=O)c2)ccc2c1CC[C@H](C)N2C(C)=O [I-492]
≥ 500 | – | ≥ 10000 | CC(=O)N1c2ccc(-c3cnn(C4CC4)c3)c(OCC3CNC3)c2CC[C@@H]1C [I-52, (S)-1-(5-(azetidin-3-ylmethoxy)-6-(1-cyclopropyl-1H-pyrazol-4-yl)-2-methyl-3,4-dihydroquinolin-1 (2H)-yl)ethanone]
50 to 500 | – | 1000 to 10000 | CC(=O)N1c2ccc(-c3cnn(CCS(C)(=O)=O)c3)c(OCCN(C)S(C)(=O)=O)c2CC[C@@H]1C [I-436]
50 to 500 | – | 1000 to 10000 | COC(=O)N1c2ccc(-c3cnn(C4CC4)c3)c(OCC3(F)COC3)c2CC[C@@H]1C [I-65, (S)-methyl 6-(1-cyclopropyl-1H-pyrazol-4-yl)-5-((3-fluorooxetan-3-yl)methoxy)-2-methyl-3,4-dihydroquinoline-1(2H)-carboxylate]
50 to 500 | – | 1000 to 10000 | CC(=O)N1c2ccc(-c3cnn(C4CC4)c3)c(OCCF)c2CC[C@@H]1C [I-5, (S)-1-(6-(1-cyclopropyl-1H-pyrazol-4-yl)-5-(2-fluoroethoxy)-2-methyl-3,4-dihydroquinolin-1(2H)-yl)ethanone]
50 to 500 | – | 1000 to 10000 | CCCOc1c(-c2cccc(C(=O)N3CCOCC3)c2)ccc2c1CC[C@H](C)N2C(C)=O [I-488]
≥ 500 | – | 1000 to 10000 | CCS(=O)(=O)c1ccc(-c2ccc3c(c2OCC(=O)N(C)C)CC[C@H](C)N3C(C)=O)cc1 [I-485]
≥ 500 | – | 1000 to 10000 | CC(=O)N1c2ccc(-c3cnn(C4CC4)c3)c(OCC(N)=O)c2CC[C@@H]1C [I-391]
50 to 500 | – | 1000 to 10000 | CC(=O)N1c2ccc(-c3cnn(C4CC4)c3)c(OC(C)(C)C(N)=O)c2CC[C@@H]1C [I-40, (S)-2-(1-acetyl-6-(1-cyclopropyl-1H-pyrazol-4-yl)-2-methyl-1,2,3,4-tetrahydroquinolin-5-yloxy)-2-methylpropanamide]
50 to 500 | – | 1000 to 10000 | CC(=O)N1c2ccc(-c3cnn(CCO)c3)c(OCCN(C)S(C)(=O)=O)c2CC[C@@H]1C [I-438]
50 to 500 | – | 1000 to 10000 | CC(=O)N1c2ccc(-c3cnn(CC(C)(C)O)c3)c(OCC(=O)N3CCCC3)c2CC[C@@H]1C [I-429]

SMILES | IC50 [1] [nM] | IC50 [2] [nM] | IC50 [3] [nM]
COC(=O)N1c2ccc(-c3cnn(C4CC4)c3)c(OC3CC(F)(F)C3)c2CC[C@@H]1C [I-33, (S)-methyl 6-(1-cyclopropyl-1H-pyrazol-4-yl)-5-(3,3-difluorocyclobutoxy)-2-methyl-3,4-dihydroquinoline-1(2H)-carboxylate] | ≥ 500 | – | 1000 to 10000
